Assays:
[1] = target: T1, NR1-1a/NR2B NMDA receptor (Rattus norvegicus, UniProt P35439+Q00960); assay: Patch-clamp inhibition of glutamate-evoked currents at recombinant NMDA receptors in transfected HEK293 cells; assay type: cell-based; settings: for IC50: calculated from relative steroid-induced inhibition, Hill's coefficient 1.2, read-out: IC50
T1 construct: expressed in transfected cells; host or cells: HEK293 cells (ATCC CRL1573)
Summary of the method: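 HEK293 cells co-transfected with rat NR1-1a/NR2B plus GFP were whole-cell patch-clamped 16-40 h post-transfection at −60 mV. Currents were evoked by 1 mmol·l^−1 glutamate with 10 μmol·l^−1 glycine in ECS pH 7.3, and steroid was co-applied in DMSO via fast perfusion. IC50 came from relative inhibition.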

[2] = tested on: laboratory mice, strain CD-1; assay type: in vivo; settings: intraperitoneally, 1 mg/kg; note: key: −: the desired effect was not observed; −/+: the desired effect was insufficient; +: the desired effect was observed
Method: (§1) In the Experimental Part 1 were used adults (30-35 g) male laboratory mice, strain CD-1 from Velaz facility, Czech Republic. Mice were housed in plastic boxes with a 12-hour light cycle (lights on at 7:00 pm). Mice had free access to food and water.
Thus there were prepared solutions of the four steroids for application rates of 0.1, 1, 10 and 100 mg/kg.
Laboratory mouse was chosen as a model organism for this experiment. The following experiments were performed as described in Front Behay. Neurosci.
The purpose of the primary behavioral testing was quickly determined the effect of compounds on CNS dependent functions and any signs of toxicity. A simplified modification Irwin test was selected with respect to the behavioral profile of NMDA receptor antagonists. Mice were tested individually. The study drug was administered intraperitoneally (Table 3) at a dose of 1 mg/kg. The control group consisted of individuals that received the CDX solution or saline.

[3] = tested on: NMDA lesion of the dorsal hippocampus in rats; assay: Active allothetic place avoidance (AAPA) after bilateral excitotoxic NMDA lesion of dorsal hippocampus; assay type: in vivo, rat Long-Evans strain; settings: for maximum time avoiding the sector, fourth session of AAPA / number of entries into the forbidden sector, fourth session of AAPA: 1 mg/kg after surgery, vs NMDA group
Method: In the Experimental Part 2 were used adult (3 months old, 300-400 g) male rat Long-Evans strain. The animals come from herds Institute of Physiology ASCR. The rats were housed in clear plastic boxes with the same light cycle as in mice. Animals had free access to food and water. All experiments were carried out in the light of clay. All experiments were carried out in accordance with the Law on protection of animals against cruelty.
The anesthetized rats were used in operations isoflurane (3.5%, Baxter). To recall excitotoxic lesion of the dorsal hippocampus was applied 0.05 mol·l^−1 solution of NMDA (Sigma-Aldrich) in 0.4 mol·l^−1 phosphate buffer solution prepared by mixing 356 g Na2HPO4.12H2O (Mw358.14) in 4.2 l of distilled water and a solution of 62.4 g NaHPO4. 2H2O (Mw156.01) in 0.8 l of distilled water. The pH of the resulting solution of NMDA was adjusted to 7.4 with NaOH.
In this experiment, the neuroprotective effects were evaluated for amphiphilic steroid compounds. The procedure was performed according to Neuropharmacology 61, 61-68 (2011)
The rats were randomly divided into eleven groups. The control group included operated animals, which were injected by phosphate buffer […] into the hippocampus. In the second group, the animals had NMDA lesions of the hippocampus. The animals of the third group were applied clinically used NMDA antagonist memantine at a dose of 5 mg/kg after NMDA lesion. The other groups were administered the compounds at a dose of 1 mg/kg.
The test was performed in rotating arena with prohibited sector in the form of a circular sector (60°). If the rat entered the sector, its limbs received weak electrical impulse.
Test memory and spatial cognition in rats using AAPA was evaluated over four sessions, which are in healthy rats sufficient to achieve asymptotic level (Behay. Brain. Res. 189, 139-144 (2008)). To evaluate memory and spatial cognition was used data from the fourth session, and the number of entries into the forbidden sector and the maximum avoidance sector. […] After the experiment, the localization of the lesion was histologically verified.
Data were analyzed using the non parametric test of Maim Whitney criteria using the GraphPad. The difference was considered significant for p<0.05, for a non-significant tendency then for 0.05<p<0.075.

[4] = tested on: laboratory mice, strain CD-1; assay: Open field test (locomotor activity, sedative effect); for Open Field Test No Evidence of Hyperlocomotion: key: −: the desired effect was not observed; −/+: the desired effect was insufficient; +: the desired effect was observed; for Sedative Effect The Rapid Onset of Sedation at a Dose of 100 mg/kg: key: −: the desired effect was not observed; −/+: the desired effect was insufficient; +: the desired effect was observed; assay type: in vivo; settings: for pathway in open field: dose 10 and 100 mg/kg, vs intact mice; for locomotor activity over time: higher dose of 10 resp. 100 mg/kg; for Open Field Test No Evidence of Hyperlocomotion / Sedative Effect The Rapid Onset of Sedation at a Dose of 100 mg/kg: intraperitoneally; for Open Field Test No Evidence of Hyperlocomotion: 0.1-100 mg/kg; for hyperlocomotion in open field: lower doses (below 10 mg/kg)
Method: as §1
Amphiphilic steroid compounds were dissolved in a solution of 3 g (2-hydroxypropyl)-β-cyclodextrin (CDX, Sigma-Aldrich) and 157 mg of citric acid ([…], Sigma-Aldrich) in 30 ml of distilled water, the pH was adjusted to 7.4 using sodium hydroxide (NaOH, Sigma-Aldrich). Thus there were prepared solutions of the four steroids for application rates of 0.1, 1, 10 and 100 mg/kg.
The efficacy of the studied compounds was compared to known NMDA antagonist is memantine (Sigma-Aldrich) at a dose of 5 mg/kg in rats, ketamine (Vétoquinol) at 10 mg/kg and dizocilpine (MK-801) (Sigma-Aldrich) at a dose of 0.3 mg/kg in mice. These three compounds were dissolved in saline (B Braun).
The substances at dose 0.1-100 mg/kg were administered before the test to mice intraperitoneally. As controls were used intact mice and mice that received CDX solution. Also, MK-801 (0.3 mg/kg) was used for comparison of effects of noncompetitive antagonist of NMDA receptors. From the experiment was evaluated overall track anywhere in the arena as an indicator of locomotor activity. In addition, it was judged a ten-minute segments track during each experiment. Based on these values, it was possible to determine the latency time of onset of action and changes in locomotor activity over time.
In this arrangement, the sedative effect of the studied compounds at the highest dose was evaluated. […] Over time was monitored locomotor activity and possible changes characterized by tremor, ataxia, restlessness, or sedation or general anesthesia (absence of response to stimuli, decreased muscle tone).

[5] = tested on: laboratory mice, strain CD-1; assay: Passive avoidance test (aversive motivated memory); assay type: in vivo; for Passive Avoidance Test No Memory Violation: key: −: the desired effect was not observed; −/+: the desired effect was insufficient; +: the desired effect was observed
Method: as §1
Aversive motivated memory test was evaluated on the basis of latency input into the preferred, but unpleasant sensation associated with delivery device.

[6] = tested on: laboratory mice, strain CD-1; assay: Forced swimming test (antidepressant effect); assay type: in vivo
Method: as §1
This assay was used to monitor the antidepressant effect. Animals float 6 minutes in acrylic cylinder in water at 24° C. A period of immobility is evaluated. The reduction is a manifestation of anti-depressant properties of drugs.

[7] = HEK293, read-out: Mean % change ± SD
[8] = memantine 5 mg/kg after NMDA lesion

T1 sequence (Q00960 27-1482, other chains not shown): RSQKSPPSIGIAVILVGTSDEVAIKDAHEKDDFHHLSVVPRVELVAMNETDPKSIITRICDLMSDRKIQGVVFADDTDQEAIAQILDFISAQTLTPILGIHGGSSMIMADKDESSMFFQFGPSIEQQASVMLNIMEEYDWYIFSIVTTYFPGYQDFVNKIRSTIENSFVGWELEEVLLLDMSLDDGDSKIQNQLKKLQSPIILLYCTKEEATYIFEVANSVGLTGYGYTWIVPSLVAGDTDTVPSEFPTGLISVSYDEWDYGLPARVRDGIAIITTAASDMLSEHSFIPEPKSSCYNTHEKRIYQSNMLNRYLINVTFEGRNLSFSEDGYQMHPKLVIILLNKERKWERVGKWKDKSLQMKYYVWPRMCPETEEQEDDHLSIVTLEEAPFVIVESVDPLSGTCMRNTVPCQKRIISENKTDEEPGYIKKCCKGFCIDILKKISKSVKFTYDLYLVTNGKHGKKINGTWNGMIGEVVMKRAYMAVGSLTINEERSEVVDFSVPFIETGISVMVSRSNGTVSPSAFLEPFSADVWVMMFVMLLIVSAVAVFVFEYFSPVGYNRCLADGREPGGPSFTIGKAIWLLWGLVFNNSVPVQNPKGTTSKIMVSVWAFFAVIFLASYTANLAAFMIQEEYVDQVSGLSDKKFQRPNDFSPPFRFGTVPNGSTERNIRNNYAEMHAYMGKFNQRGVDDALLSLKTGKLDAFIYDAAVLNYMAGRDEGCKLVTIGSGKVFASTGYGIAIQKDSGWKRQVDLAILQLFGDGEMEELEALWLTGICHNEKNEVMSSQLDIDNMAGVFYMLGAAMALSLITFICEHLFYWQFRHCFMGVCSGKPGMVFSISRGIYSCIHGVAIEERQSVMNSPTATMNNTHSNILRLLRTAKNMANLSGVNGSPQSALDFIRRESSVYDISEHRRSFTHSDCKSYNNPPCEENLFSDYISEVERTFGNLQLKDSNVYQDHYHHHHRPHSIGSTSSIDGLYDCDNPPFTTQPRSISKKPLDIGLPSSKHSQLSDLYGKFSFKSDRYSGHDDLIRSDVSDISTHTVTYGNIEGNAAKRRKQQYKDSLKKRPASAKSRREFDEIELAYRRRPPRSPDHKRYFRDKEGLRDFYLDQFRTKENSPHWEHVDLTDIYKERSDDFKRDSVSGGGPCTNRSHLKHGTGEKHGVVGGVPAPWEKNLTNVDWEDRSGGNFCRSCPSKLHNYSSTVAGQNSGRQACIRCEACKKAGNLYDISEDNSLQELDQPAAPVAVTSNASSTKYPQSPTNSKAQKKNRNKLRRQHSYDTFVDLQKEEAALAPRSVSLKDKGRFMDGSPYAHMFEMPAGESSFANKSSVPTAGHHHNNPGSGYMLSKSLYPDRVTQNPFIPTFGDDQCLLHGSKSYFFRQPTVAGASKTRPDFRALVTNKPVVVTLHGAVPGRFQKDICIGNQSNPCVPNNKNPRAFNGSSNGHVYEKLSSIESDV

C=C1CC[C@H]2[C@@H]3CC[C@@H]4C[C@H](OC(=O)CC(=O)O)CC[C@]4(C)[C@H]3CC[C@]12C [Compound 67, 3-(((3R,5R,8R,9S,10S,13S,14S)-10,13-Dimethyl-17-methylenehexadecahydro-1H-cyclo-penta[a]phenanthren-3-yl)oxy)-3-oxopropanoic acid]
inhibition at 20 µM [1, 7]: 53 ± 10.2%
IC50 [1]: 18.9 µM
Behavioural Test No Evidence of Toxicity [2]: +
maximum time avoiding the sector, fourth session of AAPA [3]: significantly increased
number of entries into the forbidden sector, fourth session of AAPA [3]: significant reduction
pathway in open field [4]: significant reduction
locomotor activity over time [4]: significant decrease
Open Field Test No Evidence of Hyperlocomotion [4]: +
Sedative Effect The Rapid Onset of Sedation at a Dose of 100 mg/kg [4]: +
hyperlocomotion in open field [4]: not (unlike groups with dizocilpine) observed hyperlocomotion

C=C1CC[C@H]2[C@@H]3CC[C@@H]4C[C@H](OC(=O)CCC(=O)O)CC[C@]4(C)[C@H]3CC[C@]12C [Compound 68, 4-(((3R,5R,8R,9S,10S,13S,14S)-10,13-Dimethyl-17-methylenhexadecahydro-1H-cyclopenta[a]phenanthren-3-yl)oxy)-4-oxobutanoic acid]
inhibition at 5 µM [1, 7]: 24.2 ± 14.3%
IC50 [1]: 18.8 µM
Passive Avoidance Test No Memory Violation [5]: +
Behavioural Test No Evidence of Toxicity [2]: +
maximum time avoiding the sector, fourth session of AAPA [3]: tendency to increase
number of entries into the forbidden sector, fourth session of AAPA [3]: reduced number of entries
pathway in open field [4]: significant reduction
locomotor activity over time [4]: significant decrease
Open Field Test No Evidence of Hyperlocomotion [4]: +
Sedative Effect The Rapid Onset of Sedation at a Dose of 100 mg/kg [4]: +
hyperlocomotion in open field [4]: not (unlike groups with dizocilpine) observed hyperlocomotion

C=C1CC[C@H]2[C@@H]3CC[C@@H]4C[C@H](OC(=O)CCCC(=O)O)CC[C@]4(C)[C@H]3CC[C@]12C [Compound 69, 5-(((3R,5R,8R,9S,10S,13S,14S)-10,13-Dimethyl-17-methylenhexadecahydro-1H-cyclopenta[a]phenanthren-3-yl)oxy)-5-oxopentanoic acid]
inhibition at 20 µM [1, 7]: 62.9 ± 5.1%
Behavioural Test No Evidence of Toxicity [2]: +
NMDA lession Improvement in Cognition in AAPA after NMDA Lession ([3]; 1 mg/kg after NMDA lesion): −/+
pathway in open field [4]: significant reduction
locomotor activity over time [4]: significant decrease
Open Field Test No Evidence of Hyperlocomotion [4]: +
Sedative Effect The Rapid Onset of Sedation at a Dose of 100 mg/kg [4]: +
hyperlocomotion in open field [4]: not (unlike groups with dizocilpine) observed hyperlocomotion

C[C@H]1CC[C@H]2[C@@H]3CC[C@@H]4C[C@H](OC(=O)[C@@H](N)CCC(=O)O)CC[C@]4(C)[C@H]3CC[C@]12C [Compound 81, (4S)-4-Amino-5-oxo-5-(((3R,5R,8S,9S,10S,13R,14S,17S)-10,13,17-trimethylhexadecahydro-1H-cyclopenta[a]phenanthren-3-yl)oxy)pentanoic acid]
Forced Swimming Test Reduced Floating [6]: −
Passive Avoidance Test No Memory Violation [5]: +
Behavioural Test No Evidence of Toxicity [2]: +
maximum time avoiding the sector, fourth session of AAPA [3]: tendency to increase
number of entries into the forbidden sector, fourth session of AAPA [3]: reduced number of entries
pathway in open field [4]: significant reduction
locomotor activity over time [4]: significant decrease
Open Field Test No Evidence of Hyperlocomotion [4]: +
Sedative Effect The Rapid Onset of Sedation at a Dose of 100 mg/kg [4]: +
hyperlocomotion in open field [4]: not (unlike groups with dizocilpine) observed hyperlocomotion

C/C=C1/CC[C@H]2[C@@H]3CC[C@@H]4C[C@H](OC(=O)CCC(=O)O)CC[C@]4(C)[C@H]3CC[C@]12C [Compound 84, 4-(((3R,5R,8R,9S,10S,13S,14S,Z)-17-Ethylidene-10,13-dimethylhexadecahydro-1H-cyclopenta[a]phenanthren-3-yl)oxy)-4-oxobutanoic acid]
Passive Avoidance Test No Memory Violation [5]: −/+
memory impairment in the passive avoidance test ([5]; 1 mg/kg): Mild memory impairment
Behavioural Test No Evidence of Toxicity [2]: +
maximum time avoiding the sector, fourth session of AAPA [3]: tendency to increase
number of entries into the forbidden sector, fourth session of AAPA [3]: reduced number of entries
pathway in open field [4]: significant reduction
locomotor activity over time [4]: significant decrease
Open Field Test No Evidence of Hyperlocomotion [4]: +
Sedative Effect The Rapid Onset of Sedation at a Dose of 100 mg/kg [4]: +
hyperlocomotion in open field [4]: not (unlike groups with dizocilpine) observed hyperlocomotion

CNC1(c2ccccc2Cl)CCCCC1=O (stereo not shown) [ketamine, reference compound]
antidepressant effect (decrease of flotation) ([6]; reference substance ketamine (10 mg/kg)): showed antidepressant effect

CC12CC3CC(C)(C1)CC(N)(C3)C2 [memantine, reference compound]
maximum time avoidance, AAPA [3, 8]: tendency to increase
number of entries into the forbidden sector, AAPA [3, 8]: reduced number of entries

— patent US10017535B2, “Amphiphilic compounds with neuroprotective properties” (USTAV ORGANICKE CHEMIE A BIOCHEMIE AV CR, v.v.i., priority 2014, dated 2018)
